Results published in patent US11866416B2, “Streptococcus mutans glucosyl transferase inhibitors for dental caries therapy” (UAB Research Foundation, priority 2018, dated 2024).
Like-named read-outs stand apart in the source and are kept apart here.

Experiments:
S. mutans biofilm = S. mutans biofilm formation and inhibition assay (96-well plates, crystal violet); type: cell-based, Streptococcus mutans; details: for IC50: Streptococcus mutans
GtfB = GtfB (Streptococcus mutans serotype c (strain ATCC 700610 / UA159), UniProt P08987); assay: Zymographic assay on GtfB from S. mutans GtfCD mutants; type: biochemical; details: 25 μM
Procedure: (§1) FIGS. 3A-3C show Gtf patterns of S. mutans UA159 and its mutant variants. Culture supernatants were prepared from S. mutans UA159 and gtf double mutants, and then subjected to SDS-PAGE analysis with equivalent amount of proteins in each lane. […] The intensity of the bands were quantified using ImageJ in comparison to DMSO.
(§2) Supernatants containing Gtf proteins prepared from S. mutans bacterial cultures were subjected to SDS-PAGE analysis and zymographic assay. […] The same amount of the protein sample was used as controls and visualized by protein staining (FIG. 3A, top panels). The lead compounds were also tested against individual Gtfs using supernatant proteins harvested from cultures of various double mutants.
(§3) Construction of S. mutans Gtfs mutants. GtfB, GtfC single mutant, and GtfBC double mutant in which gtf was replaced with a kanamycin resistance cassette, aphA3 (encoding an aminoglycoside phosphotransferase), were gifts from Dr. Robert Burne's Laboratory, University of Florida, Gainesville, Fla. The GtfD mutant was constructed by an overlapping PCR ligation strategy using an erythromycin resistance cassette isolated from the IFDC2 cassette (Xie, Z., Okinaga, T., Qi, F., Zhang, Z. & Merritt, J. Cloning-independent and counterselectable markerless mutagenesis system in Streptococcus mutans. Appl Environ Microbiol 77, 8025-8033 (2011)).

[1] = tested on: Actinomyces naeslundii T14VJ1; assay: Growth of Actinomyces naeslundii; type: cell-based; details: 200 μM; printed as slight inhibition (>20%)
Procedure: (§4) Cell viability of S. mutans, S. gordonii, S. sanguinis, Aggregatibacter actinomycetemcomitans and Actinomyces. […] The number of colony-forming units (CFU) per milliliter of each sample treated with selected compounds at different concentrations was enumerated after incubation for 24 h at 37° C. and compared to the values obtained from the DMSO control group. Overnight broth cultures were transferred by 1:50 dilutions into fresh THB medium and were allowed to grow until mid-exponential phase (OD470 nm 0.6) before transfer to 96-well plates containing desired concentration of the compound. After 16 h incubation, bacterial growth was measured at OD470, and normalized to the DMSO control (100%).

[2] = tested on: Aggregatibacter actinomycetemcomitans VT1169; assay: Growth of Aggregatibacter actinomycetemcomitans; type: cell-based; details: 200 μM
Procedure: as §4

S. sanguinis biofilm = assay: Mono-species biofilm of S. sanguinis; type: cell-based, Streptococcus sanguinis; details: up to 200 μM
Procedure: (§5) Growth of commensal and dual-species biofilms. Overnight broth cultures were transferred by 1:50 dilutions into fresh THB medium and were allowed to grow until mid-exponential phase (OD470 nm=0.6) before transfer to 96-well plates. For mono-species biofilms, 1:100 dilution of the individual cultures was added to the 96-well plate containing the desired concentration of compound or DMSO. After incubation for 16 h, the biofilms were gently washed with PBS in triplicate and the biofilms were quantified with crystal violet staining. For dual-species biofilms, 1:100 dilution of S. mutans was used and 1:10 dilution of the commensal species (S. sanguinius or S. gordonii) was used as inoculum to seed the 96-well plate containing the desired concentration of compound or DMSO. After incubation for 16 h, the biofilms were scratched off with a sterile spatula and suspended in 100 μL of PBS, the biofilm samples were vortexed. To determine the total number of viable bacterial cells (colony forming units, CFU), 100 μl from dispersed, 16 h biofilms were serially diluted in potassium phosphate buffer and plated in duplicate on BAP. The commensal species could be differentiated from S. mutans due to their characteristic green rings.

S. gordonii biofilm = assay: Mono-species biofilm of S. gordonii; type: cell-based, Streptococcus gordonii; details: treated with lead compound
Procedure: as §5

gtfs expression = assay: Real time RT-PCR of gtfs expression; type: cell-based, Streptococcus mutans; details: S. mutans UA159, different concentrations, calibrated by 16S rRNA
Procedure: The expression of gtfs was examined by real time RT-PCR. The mRNA expression levels were calibrated by 16S rRNA. Values represent the means±standard deviations from three independent experiments. […] The P value>0.05 is considered to be not significant.
The effect of this potent small molecule on the gene expression of gtfs was also examined. The relative expression level of gtfs was evaluated by real time RT-PCR.

GtfC = GtfC (Streptococcus mutans serotype c (strain ATCC 700610 / UA159), UniProt P13470); assay: Zymographic assay on GtfC from S. mutans GtfBD mutants; type: biochemical; details: 25 μM
Procedure: as §1, §2, §3

S. mutans colonization = assay: Sucrose-dependent Drosophila colonization model; type: in vivo; details: 50 μM
Procedure: Briefly, Gfp tagged S. mutans bacteria were infected into flies along with the treatment appropriate compound at 100 μM in a feeding-assay.
Mid-log phase THB cultures of Gfp-tagged (green fluorescent protein) S. mutans UA159 were spun down and resuspended in a solution containing 5% sucrose and 50 μM of the compound. 100 μL of resuspended cells were spotted onto a sterile filter that was placed on the surface of 5 mL of solidified 5% sucrose agar in a plastic vial. The vials were allowed to dry at room temperature for 30 minutes prior to addition of flies. Male Canton S flies (1-3 days old) were treated with antibiotics for 2 days and starved for 3 hours prior to the addition to vials supplied with S. mutans (10 flies per vial). The colonization of flies by Gfp-tagged strains were analyzed by Nikon elipse 90i microscope, equipped with an Epi-fluorescence and NIS elements AR imaging system.
The intensity of the fluorescence was measured in the guts of the flies fed with the Gfp tagged bacteria after 7 days of infection.
Cultures of Gfp-tagged (green fluorescent protein) S. mutans UA159 grown to middle log phase were spun down and re-suspended in a solution containing 5% sucrose and 50 μM of each compound. 100 μL of re-suspended cells were aliquoted onto a sterile filter that was placed on the surface of 5 mL of solidified 5% sucrose agar in a plastic vial. Upon the drying of the vials at room temperature for 30 min, the flies were introduced to the vessels. Male Canton S flies (1-3 days old) were treated with antibiotics for 2 days and starved for 3 h before the addition to vials supplied with S. mutans (10-14 flies per vial). Nikon elipse 90i microscope, equipped with an Epi-fluorescence and NIS elements AR imaging system was used to analyze the colonization of flies by Gfp-tagged strains.

GtfC, sequence (P13470 35-1455 limits assumed): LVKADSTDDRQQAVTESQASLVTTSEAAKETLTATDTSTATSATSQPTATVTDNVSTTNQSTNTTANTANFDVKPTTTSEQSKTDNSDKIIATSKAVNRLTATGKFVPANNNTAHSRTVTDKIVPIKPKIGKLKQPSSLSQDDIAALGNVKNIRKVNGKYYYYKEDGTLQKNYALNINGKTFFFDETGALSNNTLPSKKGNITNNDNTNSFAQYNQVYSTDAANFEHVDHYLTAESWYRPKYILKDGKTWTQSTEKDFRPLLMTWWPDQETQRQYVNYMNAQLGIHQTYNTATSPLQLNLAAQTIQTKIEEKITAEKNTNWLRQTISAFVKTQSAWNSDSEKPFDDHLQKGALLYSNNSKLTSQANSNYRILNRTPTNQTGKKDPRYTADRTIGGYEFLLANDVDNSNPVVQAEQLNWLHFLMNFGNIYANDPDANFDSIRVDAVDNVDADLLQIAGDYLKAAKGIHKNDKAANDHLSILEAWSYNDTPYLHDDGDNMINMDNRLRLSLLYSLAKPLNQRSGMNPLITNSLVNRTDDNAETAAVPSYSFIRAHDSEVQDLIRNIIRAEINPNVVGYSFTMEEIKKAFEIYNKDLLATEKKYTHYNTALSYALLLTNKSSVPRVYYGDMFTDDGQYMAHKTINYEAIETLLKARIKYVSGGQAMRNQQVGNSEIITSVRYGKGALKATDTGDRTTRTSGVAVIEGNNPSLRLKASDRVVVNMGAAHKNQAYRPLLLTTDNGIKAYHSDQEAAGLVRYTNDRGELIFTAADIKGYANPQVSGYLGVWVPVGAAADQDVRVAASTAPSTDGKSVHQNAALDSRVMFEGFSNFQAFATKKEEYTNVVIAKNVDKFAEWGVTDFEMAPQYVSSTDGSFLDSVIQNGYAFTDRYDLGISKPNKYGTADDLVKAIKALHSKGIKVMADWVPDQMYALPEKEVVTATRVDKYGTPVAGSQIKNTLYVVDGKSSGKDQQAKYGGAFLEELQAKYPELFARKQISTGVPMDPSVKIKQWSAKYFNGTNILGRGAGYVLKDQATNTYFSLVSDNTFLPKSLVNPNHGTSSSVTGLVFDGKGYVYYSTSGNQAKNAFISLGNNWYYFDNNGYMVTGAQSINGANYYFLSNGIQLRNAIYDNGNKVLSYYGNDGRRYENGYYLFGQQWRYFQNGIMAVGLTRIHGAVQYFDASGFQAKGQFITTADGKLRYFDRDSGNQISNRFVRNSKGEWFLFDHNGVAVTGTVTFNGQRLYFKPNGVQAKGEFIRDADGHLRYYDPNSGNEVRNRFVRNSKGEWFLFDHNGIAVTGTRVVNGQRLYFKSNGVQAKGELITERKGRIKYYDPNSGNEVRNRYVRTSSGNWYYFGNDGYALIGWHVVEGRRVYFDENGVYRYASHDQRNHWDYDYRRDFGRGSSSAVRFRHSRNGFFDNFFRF
GtfB, sequence (P08987 35-1476 limits assumed): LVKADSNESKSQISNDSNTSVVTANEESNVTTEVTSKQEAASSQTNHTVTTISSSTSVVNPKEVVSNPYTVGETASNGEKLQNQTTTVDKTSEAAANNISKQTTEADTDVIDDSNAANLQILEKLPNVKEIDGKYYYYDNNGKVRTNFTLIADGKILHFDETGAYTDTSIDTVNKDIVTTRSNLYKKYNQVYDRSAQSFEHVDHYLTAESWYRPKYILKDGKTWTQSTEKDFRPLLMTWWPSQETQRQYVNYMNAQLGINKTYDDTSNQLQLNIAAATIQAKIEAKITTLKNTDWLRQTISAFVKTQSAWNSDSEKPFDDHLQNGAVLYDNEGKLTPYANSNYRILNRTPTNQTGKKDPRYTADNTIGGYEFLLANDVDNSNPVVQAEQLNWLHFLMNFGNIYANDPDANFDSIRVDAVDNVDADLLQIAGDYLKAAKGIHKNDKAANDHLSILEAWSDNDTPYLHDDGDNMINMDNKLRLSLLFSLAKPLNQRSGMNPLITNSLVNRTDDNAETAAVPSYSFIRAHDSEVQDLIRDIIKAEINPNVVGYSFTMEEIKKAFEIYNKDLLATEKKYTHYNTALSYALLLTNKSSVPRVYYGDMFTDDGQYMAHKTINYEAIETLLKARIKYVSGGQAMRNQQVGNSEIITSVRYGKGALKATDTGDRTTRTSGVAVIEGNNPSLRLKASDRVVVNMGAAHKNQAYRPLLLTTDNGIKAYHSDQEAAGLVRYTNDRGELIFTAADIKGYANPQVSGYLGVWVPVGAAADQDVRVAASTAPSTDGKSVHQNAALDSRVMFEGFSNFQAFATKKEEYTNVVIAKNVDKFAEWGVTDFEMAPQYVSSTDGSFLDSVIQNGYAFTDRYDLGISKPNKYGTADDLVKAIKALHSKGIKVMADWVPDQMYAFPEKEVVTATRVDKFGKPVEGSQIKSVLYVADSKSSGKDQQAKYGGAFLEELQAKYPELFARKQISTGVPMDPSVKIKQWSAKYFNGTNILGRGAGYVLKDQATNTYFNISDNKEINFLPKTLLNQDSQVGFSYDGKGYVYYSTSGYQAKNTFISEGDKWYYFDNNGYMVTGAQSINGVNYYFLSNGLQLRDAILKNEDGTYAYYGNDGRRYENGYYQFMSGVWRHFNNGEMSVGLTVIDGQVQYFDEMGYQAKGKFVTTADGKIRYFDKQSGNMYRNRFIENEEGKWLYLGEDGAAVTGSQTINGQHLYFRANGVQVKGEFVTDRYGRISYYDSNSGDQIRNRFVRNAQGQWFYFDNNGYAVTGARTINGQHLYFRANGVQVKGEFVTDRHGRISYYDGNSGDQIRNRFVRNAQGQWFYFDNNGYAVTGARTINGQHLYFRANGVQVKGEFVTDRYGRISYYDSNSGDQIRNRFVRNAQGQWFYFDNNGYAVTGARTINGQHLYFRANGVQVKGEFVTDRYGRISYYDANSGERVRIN

SMILES | inhibition of S. mutans biofilms at 12.5 μM (S. mutans biofilm; 12.5 μM, crystal violet assay) | inhibition of GtfB activity (ImageJ band intensity) (GtfB) | inhibition of Actinomyces naeslundii growth [1] | inhibition of Aggregatibacter actinomycetemcomitans growth [2] | S. sanguinis biofilm formation versus control (S. sanguinis biofilm) | S. gordonii biofilm formation (S. gordonii biofilm) | expression of gtfs versus DMSO (gtfs expression) | inhibition of GtfC activity (ImageJ band intensity) (GtfC) | IC50 (S. mutans biofilm; Table 3, read-out: Biofilm Inhibition IC50) | IC50 (S. mutans biofilm; Table 4, stilbenes, NI = no inhibition, read-out: Biofilm IC50) | IC50 (S. mutans biofilm; Table 8, stilbenes, NI = no inhibition, read-out: Biofilm IC50) | IC50 (S. mutans biofilm; read-out: S. mutans biofilm IC50) | fluorescence of Gfp tagged S. mutans in fly guts after 7 days (S. mutans colonization)
NC(=O)c1ccccc1NC(=O)c1cc2cc([N+](=O)[O-])ccc2s1 [#G43] | more than 85% | 80% | > 20% | no significant inhibition | No significant difference | slight increase | no significant difference was observed | 80% |  |  |  |  | 
Oc1cc(O)cc(/C=C/c2ccc(O)c(O)c2)c1 [Piceatannol] |  |  |  |  |  |  |  |  | 52 ± 6 µM | 52 ± 6 µM | 52 ± 6 µM | 52 µM | significant decrease in fluorescence
